Data: patent publication US20210138274A1, “ACCUMULATIVE BORON 10 MEDICINE FOR BORON NEUTRON CAPTURE THERAPY FOR SELECTIVELY OR LOCALLY TARGETING TUMOR TISSUES IN SHORT TIME” (HIROSAKI UNIVERSITY, priority 2018, published 2021)
“Also recorded” adds a separate entry of the source. Where no end group is shown, it is not given here. Side-chain parts run from the residue outwards. EMCS = N-(6-maleimidocaproyloxy)succinimide crosslinker

Assays:
[1] = test system: tumor-bearing mice (murine bladder cancer cell MBT2); experiment: Tumor accumulation ability test, Comparative Example 1 (^10B levels in organs, ICP-AES method); assay type: in vivo; details: FIG. 2
Method: Additionally, as Comparative Example 1, a tumor accumulation ability test was similarly performed using R-D-fructopyranose, 2′ position of which is esterified with [10B]boronophenylalanine group represented by the formula (a) (hereinafter, simply referred to as “^10BPA-fructose”). 100 μL (2,000 μg) of ^10BPA-fructose whose dosage amount was increased to 100 mg/kg was administered to the tail vein of tumor-bearing mice. ^10B levels (ppm) in the respective organs of the tumor-bearing mice were measured 20, 40, and 60 minutes after the tail-vein administration by ICP-AES method. FIG. 2 is a drawing indicating ^10B levels (ppm) in the organs of the tumor-bearing mice at 20, 40, and 60 minutes after tail-vein administration of 100 μL (2,000 μg) of ^10BPA-fructose.

[2] = test system: tumor-bearing mice seeded in the thigh with murine bladder cancer cell strain MBT2; experiment: Neutron irradiation test (tumor volume, hot group vs cold group); assay type: in vivo; details: 7 mg/kg tail vein, neutron irradiation 40 minutes after administration; for effect of reducing the tumor volume, hot group versus cold group: tumor volumes (mm^3) measured for 21 days, FIGS. 5, 6
Method: IF7-^10BPA was administered to the tail vein of tumor-bearing mice seeded in the thigh with murine bladder cancer cell strain MBT2 at a dosage amount of 7 mg/kg. Thereafter, tumor volumes (mm^3) thereof were measured for 21 days, with respect to a group (hot group), which was irradiated 40 minutes after the tail-vein administration with neutrons for 30 minutes under the following conditions and a group (cold group), which was not irradiated. In the drawing, * represents p<0.05.
(1) Neutron fluence (cm^−2·s^−1) 2.1E^+12 (2.1×10^12) to 4.6E^+12 (2) Physical dose (Gy) Thermal neutrons: 2.8E^−1 to 6.1E^−1 Epithermal neutrons: 3.0E^−2 to 6.5E^−2 Fast neutrons: 2.1E^−1 to 4.6E^−1 Gamma rays: 2.1E^−1 to 4.6E^−1 Total: 8.9E^−1 to 1.5E^0
Administration was performed in the same manner as in Example 5, except that IF7-^10BSH was administered instead of IF7-^10BPA. Thereafter, tumor volumes (mm^3) were measured for 21 days with respect to the hot group which was irradiated with neutrons 40 minutes after the administration and the cold group which was not irradiated.
IF7-^10BPA was administered to tail vein of the tumor-bearing mice seeded with murine bladder cancer cell strain MBT2 at a dosage amount of 7 mg/kg. Thereafter, tumor volumes (mm^3) were measured for 21 days with respect to a hot group which was irradiated with neutrons 40 minutes after the tail-vein administration and a cold group which was not irradiated.
The administration was performed in the same manner as in Example 7, except that 1BPA was administered instead of IF7-^10BPA, tumor volumes (mm^3) were measured for 21 days with respect to the hot group irradiated 40 minutes after the administration with neutrons and the cold group which was not irradiated.

[3] = test system: tumor-bearing mice seeded on the thigh with a murine bladder cancer cell MBT2; details: mouse, in vivo
Method: Tumor accumulation ability was tested in tumor-bearing mice (7 mm in tumor diameter) seeded on the thigh with a murine bladder cancer cell MBT2, with respect to IF7-^10BPA synthesized in Synthesis Example 1 above and IF7-^10BSH synthesized in Synthesis Example 2 above. 100 μL (175 μg) of IF7-^10BPA or IF7-^10BSH adjusted to 7 mg/kg was administered to the tail vein of the tumor-bearing mice. ^10B levels (ppm) in the organs of the tumor-bearing mice were measured 5, 10, and 20 minutes after the tail-vein administration by the PGA-method.
^10B levels in the respective organs of the tumor-bearing mice were measured in the same manner as in Example 1, except that the measurement was performed 40 minutes after the administration in addition to 5, 10 and 20 minutes, the number of n in the respective data was 3 or more, and the measurement results were indicated in violin plots.
^10B levels in the respective organs of the tumor-bearing mice were measured in the same manner as in Example 3, except that instead of IF7-^10BPA, [10B]boronophenylalanine (^10BPA) in the same concentration was administered. The results are indicated in violin plots in FIG. 3B.
^10B levels in the respective organs of the tumor-bearing mice were measured in the same manner as in Comparative Example 2, except that the concentration of ^10BPA was changed from 7 mg/kg to 100 mg/kg. […]

Substance | accumulation of ^10B in the tumor tissue ([1]; 100 mg/kg (100 μL, 2,000 μg) tail vein, 20, 40, and 60 minutes after the administration) | discrimination of the tumor tissue from the other organs (^10B levels) ([1]; 100 mg/kg tail vein, 20, 40, and 60 minutes) | effect of reducing the tumor volume, hot group versus cold group [2] | ^10B level in the tumor compared with ^10BPA 100 mg/kg (Comparative Example 3) [3] | effect of reducing the tumor volume, hot group IF7-^10BPA (Example 7) versus hot group ^10BPA (Comparative Example 5) ([2]; 21 days, FIGS. 6A, 6B)
R-D-fructopyranose, 2′ position of which is esterified with [10B]boronophenylalanine group represented by the formula (a) [^10BPA-fructose] | did not accumulate at all in the tumor tissue | did not significantly discriminate the tumor tissue from the other organs | – | – | –
IF7-^10BSH: peptide IFLLWQRKRR (SEQ ID NO: 3) crosslinked with EMCS between lysine amino group and thiol group of sodium [10B]borocaptate (IFLLWQRK([EMCS-sodium (10B)borocaptate])RR) | – | – | effect of reducing the tumor volume was pronounced | – | –
IF7-^10BPA: peptide IFLLWQRCRR (SEQ ID NO: 2) crosslinked with EMCS between cysteine thiol and terminal amino group of a ^10B boronophenylalanine compound (IFLLWQRC([EMCS-(10B)boronophenylalanine])RR) | – | – | effect of reducing the tumor volume was pronounced; also recorded: more pronounced in the hot group | not inferior | effect of reducing the tumor volume was greater
